# Results published in patent publication US20230014445A1, “ALLOSTERIC CHROMENONE INHIBITORS OF PHOSPHOINOSITIDE 3-KINASE (PI3K) FOR THE TREATMENT OF DISEASE” (Petra Pharma Corporation, priority 2021, published 2023).
# Experiments:
# [1] = molecular target: T1, human full length PIK3KA Wild-type (p110α/p85α complex) (Homo sapiens, UniProt P42336); test: PI3K-Alpha Kinase (PIK3CA) biochemical activity, wild-type (ADP-Glo); settings: 20 uM ATP
# T1 construct: Recombinant, catalytically active human full length PIK3KA Wild-type and H1047R mutant were purchased; 6xHis (N); purchased EMD Millipore Sigma 14-602M
# Text: (§1) PI3K-Alpha Kinase (PIK3CA) Activity, Wild-Type and H1047R Mutant and Determining IC50 Values for Inhibitors
# (§2) Recombinant, catalytically active human full length PIK3KA Wild-type and H1047R mutant were purchased as 1:1 complex of N-terminal 6×his tagged p110α (catalytic) and untagged p85α, (regulatory subunit) from EMD Millipore Sigma (cat. no. 14-602M and 14-792M, respectively). PIP2diC8 (Avanti Polar Lipids Inc., cat. no. 850185) or Soy PI (Avanti Polar Lipids Inc., cat. No. 840044P) was used as lipid substrate. PIP2diC8 or PI lyophilized powder was dissolved in milliQ water to a concentration of 1 mM just before use. 10 mM stock compounds in DMSO were serially diluted 1:3 to generate a 10-point curve and plated using an acoustic liquid handler system (Echo 550 series instrument, Labcyte). A 10× intermediate compound plate (200 uM starting compound concentration and 10% DMSO) was prepared before starting the reaction. A typical reaction mixture (50 uL) comprised 40 mM HEPES buffer, pH 7.4, 25 mM MgCl2, 0.01% v/v triton-X-100, 1% v/v DMSO, 20 mM NaCl, 1-5 nM WT or H1047R PI3K protein, 20 uM ATP, and 50 uM PIP2diC8 or Soy PI. 1% DMSO buffer alone without test compound was employed as MAX control (full activity in the absence of any inhibitor), and no enzyme control was used to determine the level of background Adenosine 5′-diphosphate (ADP) (MIN control). First, Wild-type (WT) and H1047R mutant protein in kinase buffer with all components except ATP were incubated with or without compound at 27° C. for 1 h. After the pre-incubation, the reaction was initiated by the addition of […] (20 uM final concentration). The reaction was allowed to proceed until about 10% conversion of ATP (2 uM ADP) at 27° C. After that time, 5 uL of reaction was mixed with 5 uL of ADP-Kinase Glo Reagent (ADP-Glo Kinase assay kit, Promega cat. no. V9102) supplemented with MgCl2 10 mM to stop the reaction and deplete the remaining ATP for 40 min at room temperature. Then, 10 uL of Kinase Detection Reagent (ADP-Glo Kinase assay kit, Promega cat. no. V9102) was added to simultaneously convert ADP to ATP and allow the newly synthesized ATP to be measured using a luciferase/luciferin reaction. After 30 min at room temperature the light generated was measured using a luminometer (EnVision plate reader, Perkin Elmer). Process data through Genedata-Screener tool. Relative IC50 values are determined using luminescence units by calculating percent inhibition with respect to on-plate “MIN” and “MAX” controls. Data was analyzed using a 4-parameter nonlinear logistic equation (four-parameter logistic concentration-response curve):
# (§3) Y=bot+[(top−bot)/1+(x/IC50)slope]
# (§4) where Y=% inhibition, X=concentration yielding y % inhibition, Bottom=minimum value of y attained by curve, Top=maximum value of y attained by curve and Slope=steepness of curve at IC50.
# (§5) % Inh=[(median Max−x/median Max−median Min)]·100
# (§6) IC50: concentration of compound that reduces a given response (ligand binding, enzyme response) by 50%. IC50 relative: concentration giving half the compound's maximum response.
# (§7) For IC50 values shown in Table A, “A” means IC50<0.5 μM; “B” means IC50 ranging between 0.5 μM and 1.0 μM; “C” means IC50 ranging between 1 μM and 5 μM; “D” means IC50 ranging between 5 μM and 10 μM; “E” means IC50>10 μM.
# [2] = molecular target: T2, human full length PIK3KA H1047R mutant (p110α/p85α complex) (Homo sapiens, UniProt P42336, H1047R); test: PI3K-Alpha Kinase (PIK3CA) biochemical activity, H1047R mutant (ADP-Glo); settings: 20 uM ATP
# T2 construct: Recombinant, catalytically active human full length PIK3KA Wild-type and H1047R mutant were purchased; 6xHis (N); purchased EMD Millipore Sigma 14-792M
# T2 sequence (P42336 whole entry H1047R): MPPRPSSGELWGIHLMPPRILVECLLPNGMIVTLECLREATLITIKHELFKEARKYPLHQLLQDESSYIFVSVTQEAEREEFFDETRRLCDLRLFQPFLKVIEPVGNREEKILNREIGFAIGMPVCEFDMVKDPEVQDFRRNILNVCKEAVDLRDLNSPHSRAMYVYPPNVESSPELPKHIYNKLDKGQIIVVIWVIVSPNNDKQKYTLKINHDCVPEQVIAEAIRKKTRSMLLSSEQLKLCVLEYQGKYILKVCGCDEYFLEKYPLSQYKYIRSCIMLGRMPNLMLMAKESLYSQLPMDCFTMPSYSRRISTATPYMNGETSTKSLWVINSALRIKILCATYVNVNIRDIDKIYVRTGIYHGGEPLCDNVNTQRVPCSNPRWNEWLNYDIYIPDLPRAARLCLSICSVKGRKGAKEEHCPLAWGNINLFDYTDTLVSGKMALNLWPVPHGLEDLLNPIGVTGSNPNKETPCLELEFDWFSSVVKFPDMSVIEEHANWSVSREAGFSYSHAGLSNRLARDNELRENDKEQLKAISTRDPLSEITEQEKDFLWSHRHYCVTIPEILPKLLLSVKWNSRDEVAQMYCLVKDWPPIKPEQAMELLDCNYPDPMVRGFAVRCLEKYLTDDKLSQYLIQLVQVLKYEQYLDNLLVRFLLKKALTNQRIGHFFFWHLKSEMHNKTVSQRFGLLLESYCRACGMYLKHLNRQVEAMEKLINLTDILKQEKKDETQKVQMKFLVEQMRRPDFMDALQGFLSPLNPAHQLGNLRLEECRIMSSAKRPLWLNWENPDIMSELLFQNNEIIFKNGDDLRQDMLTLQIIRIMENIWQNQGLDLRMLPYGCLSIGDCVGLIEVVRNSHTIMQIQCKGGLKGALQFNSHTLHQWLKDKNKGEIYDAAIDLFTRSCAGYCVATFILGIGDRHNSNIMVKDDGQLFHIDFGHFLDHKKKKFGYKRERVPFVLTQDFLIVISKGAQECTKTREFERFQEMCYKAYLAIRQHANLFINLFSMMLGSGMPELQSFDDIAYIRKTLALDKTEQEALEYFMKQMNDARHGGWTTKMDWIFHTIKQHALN
# T2 sequence (P27986 whole entry partner): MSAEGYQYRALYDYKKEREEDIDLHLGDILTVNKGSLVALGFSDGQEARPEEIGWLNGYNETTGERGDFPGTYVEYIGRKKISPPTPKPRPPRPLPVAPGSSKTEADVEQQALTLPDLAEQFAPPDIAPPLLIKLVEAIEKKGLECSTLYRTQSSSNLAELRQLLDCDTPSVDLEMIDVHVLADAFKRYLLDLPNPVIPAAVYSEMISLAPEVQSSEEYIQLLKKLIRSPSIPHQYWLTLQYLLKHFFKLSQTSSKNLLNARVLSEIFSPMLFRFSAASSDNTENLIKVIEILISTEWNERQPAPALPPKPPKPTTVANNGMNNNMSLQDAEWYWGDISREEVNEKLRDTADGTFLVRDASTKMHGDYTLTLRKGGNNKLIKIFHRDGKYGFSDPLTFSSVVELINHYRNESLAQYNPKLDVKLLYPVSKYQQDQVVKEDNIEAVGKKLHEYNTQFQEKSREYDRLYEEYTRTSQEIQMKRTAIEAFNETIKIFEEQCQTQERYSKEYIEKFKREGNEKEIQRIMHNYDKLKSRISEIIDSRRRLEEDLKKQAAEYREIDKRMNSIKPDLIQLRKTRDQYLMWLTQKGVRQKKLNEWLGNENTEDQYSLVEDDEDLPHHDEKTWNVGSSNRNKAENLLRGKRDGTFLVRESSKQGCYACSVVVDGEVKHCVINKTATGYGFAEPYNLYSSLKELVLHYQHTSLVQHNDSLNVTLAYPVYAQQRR
# Text: as §1, §2, §3, §4, §5, §6, §7
Compound,IC50 ([1]; Soy PI lipid substrate) [nM],IC50 ([2]; Soy PI lipid substrate) [nM],IC50 ([1]; PIP2diC8 lipid substrate) [nM],IC50 ([2]; PIP2diC8 lipid substrate) [nM]
"Cc1cc(C(C)Nc2ccccc2C(=O)O)c2oc(-c3ccccn3)c(C(F)(F)F)c(=O)c2c1 (single isomer, unassigned) [Example 67, 2-[1-[6-Methyl-4-oxo-2-(2-pyridyl)-3-(trifluoromethyl)chromen-8-yl]ethylamino]benzoic acid, Isomer 1,2,2,2-trifluoroacetic acid]",1000 to 5000,< 500,–,–
"Cc1cc(C(C)Nc2ccccc2C(=O)O)c2oc(-n3ccnc3)cc(=O)c2c1 (single isomer, unassigned) [Example 59, 2-[1-(2-Imidazol-1-yl-6-methyl-4-oxo-chromen-8-yl)ethylamino]benzoic acid, Isomer 2,2,2,2-trifluoroacetic acid]",–,–,1000 to 5000,< 500
"Cc1c(-c2ccccn2)oc2c(C(C)Nc3ccccc3C(=O)O)cc(F)cc2c1=O (single isomer, unassigned) [Example 68, 2-[1-[6-Fluoro-3-methyl-4-oxo-2-(2-pyridyl)chromen-8-yl]ethylamino]benzoic acid, Isomer 1,2,2,2-trifluoroacetic acid]",5000 to 10000,< 500,–,–
"Cc1cc(C(C)Nc2ccc(Cl)nc2C(=O)O)c2oc(-c3cnccn3)cc(=O)c2c1 (single isomer, unassigned; isomer 1) [Example 28, 6-Chloro-3-[1-(6-methyl-4-oxo-2-pyrazin-2-yl-chromen-8-yl)ethylamino]pyridine-2-carboxylic acid, Isomer 1]",1000 to 5000,< 500,–,–
"Cc1cc(C(C)Nc2ccccc2C(=O)O)c2oc(-c3cccnc3)cc(=O)c2c1 (single isomer, unassigned; isomer 2) [Example 14, 2-[1-[6-Methyl-4-oxo-2-(3-pyridyl)chromen-8-yl]ethylamino]benzoic acid, Isomer 2]",1000 to 5000,< 500,–,–
"Cc1cc(C(C)Nc2ccccc2C(=O)O)c2oc(-n3cccn3)cc(=O)c2c1 (single isomer, unassigned) [Example 58, 2-[1-(6-Methyl-4-oxo-2-pyrazol-1-yl-chromen-8-yl)ethylamino]benzoic acid, Isomer 2,2,2,2-trifluoroacetic acid]",5000 to 10000,< 500,–,–
"COc1ccc(-c2cc(=O)c3cc(C)cc(C(C)Nc4ccccc4C(=O)O)c3o2)cn1 (single isomer, unassigned; isomer 2) [Example 20, 2-[1-[2-(6-Methoxy-3-pyridyl)-6-methyl-4-oxo-chromen-8-yl]ethylamino]benzoic acid, Isomer 2]",1000 to 5000,< 500,–,–
"Cc1cc(C(C)Nc2ccccc2C(=O)O)c2oc(-c3cnn(-c4cccc(C#N)c4)c3)cc(=O)c2c1 (single isomer, unassigned) [Example 54, 2-[1-[2-[1-(3-Cyanophenyl)pyrazol-4-yl]-6-methyl-4-oxo-chromen-8-yl]ethylamino]benzoic acid, Isomer 2,2,2,2-trifluoroacetic acid]",1000 to 5000,< 500,–,–
"Cc1cc(C(C)Nc2ccccc2C(=O)O)c2oc(-c3cnn(-c4ccc(C#N)cc4)c3)cc(=O)c2c1 (single isomer, unassigned) [Example 64, 2-[1-2-[1-(4-Cyanophenyl)pyrazol-4-yl]-6-methyl-4-oxo-chromen-8-yl]ethylamino]benzoic acid, Isomer 2,2,2,2-trifluoroacetic acid]",1000 to 5000,< 500,–,–
"Cc1cc(C(C)Nc2ccc(Cl)nc2C(=O)O)c2oc(-c3ccccn3)cc(=O)c2c1 (single isomer, unassigned; isomer 1) [Example 27, 6-Chloro-3-[1-[6-methyl-4-oxo-2-(2-pyridyl)chromen-8-yl]ethylamino]pyridine-2-carboxylic acid, Isomer 1]",1000 to 5000,< 500,–,–
"COc1ccc(-c2cc(=O)c3cc(C)cc(C(C)Nc4ccccc4C(=O)O)c3o2)cn1 (centres unmarked) [Example 12, 2-[1-[2-(6-Methoxy-3-pyridyl)-6-methyl-4-oxo-chromen-8-yl]ethylamino]benzoic acid 2,2,2-trifluoroacetic acid]",1000 to 5000,< 500,–,–
"Cc1cc(C(C)Nc2ccccc2C(=O)O)c2oc(-c3cnc(C4CC4)nc3)cc(=O)c2c1 (single isomer, unassigned; isomer 2) [Example 26, 2-[1-[2-(2-Cyclopropylpyrimidin-5-yl)-6-methyl-4-oxo-chromen-8-yl]ethylamino]benzoic acid, Isomer 2]",5000 to 10000,< 500,–,–
"Cc1cc(C(C)Nc2ccccc2C(=O)O)c2oc(-c3ccccn3)cc(=O)c2c1 (single isomer, unassigned; isomer 2) [Example 18, 2-[1-[6-Methyl-4-oxo-2-(2-pyridyl)chromen-8-yl]ethylamino]benzoic acid, Isomer 2]",–,–,> 10000,> 10000

# Further lines, results first:
IC50 ([1]; Soy PI lipid substrate) [nM],IC50 ([2]; Soy PI lipid substrate) [nM],IC50 ([1]; PIP2diC8 lipid substrate) [nM],IC50 ([2]; PIP2diC8 lipid substrate) [nM],Compound
1000 to 5000,< 500,–,–,"CC(Nc1ccc(Cl)nc1C(=O)O)c1cc(C(F)(F)F)cc2c(=O)cc(-c3cnn(-c4ccc(C#N)cc4)c3)oc12 (single isomer, unassigned; isomer 1) [Example 96, 6-Chloro-3-[1-[2-[1-(4-cyanophenyl)pyrazol-4-yl]-4-oxo-6-(trifluoromethyl)chromen-8-yl]ethylamino]pyridine-2-carboxylic acid, Isomer 1]"
1000 to 5000,< 500,–,–,"COc1cc(-n2cc(-c3cc(=O)c4cc(C)cc(C(C)Nc5ccccc5C(=O)O)c4o3)cn2)ccc1C#N (single isomer, unassigned) [Example 94, 2-[1-[2-[1-(4-Cyano-3-methoxy-phenyl)pyrazol-4-yl]-6-methyl-4-oxo-chromen-8-yl]ethylamino]benzoic acid, Isomer 2,2,2,2-trifluoroacetic acid]"
500 to 1000,< 500,–,–,"Cc1cc(C(C)Nc2cccc(F)c2C(=O)O)c2oc(-c3cnn(-c4ccc(C#N)cc4)c3)cc(=O)c2c1 (centres unmarked) [Example 101, 2-[1-[2-[1-(4-Cyanophenyl)pyrazol-4-yl]-6-methyl-4-oxo-chromen-8-yl]ethylamino]-6-fluoro-benzoic acid 2,2,2-trifluoroacetic acid]"
> 10000,500 to 1000,–,–,"Cc1cc(C(C)Nc2ccccc2C(=O)O)c2oc(-c3cnn(-c4ccc(C#N)cc4F)c3)cc(=O)c2c1 (single isomer, unassigned) [Example 104, 2-[1-[2-[1-(4-Cyano-2-fluoro-phenyl)pyrazol-4-yl]-6-methyl-4-oxo-chromen-8-yl]ethylamino]benzoic acid, Isomer 2,2,2,2-trifluoroacetic acid]"
> 10000,500 to 1000,–,–,"Cc1cc(C(C)Nc2ccccc2C(=O)O)c2oc(-c3cnn(-c4ccc(OC(F)(F)F)cc4)c3)cc(=O)c2c1 (single isomer, unassigned) [Example 93, 2-[1-[6-Methyl-4-oxo-2-[1-[4-(trifluoromethoxy)phenyl]pyrazol-4-yl]chromen-8-yl]ethylamino]benzoic acid, Isomer 2,2,2,2-trifluoroacetic acid]"
5000 to 10000,500 to 1000,–,–,"Cc1cc(C(C)Nc2ccccc2C(=O)O)c2oc(-c3cn(-c4ccc(C#N)cc4)nc3C)cc(=O)c2c1 (single isomer, unassigned) [Example 109, 2-[1-[2-[1-(4-Cyanophenyl)-3-methyl-pyrazol-4-yl]-6-methyl-4-oxo-chromen-8-yl]ethylamino]benzoic acid, Isomer 2,2,2,2-trifluoroacetic acid]"
